Measurements taken from ChEMBL document CHEMBL4308841, “Synthesis, in vitro antiproliferative activity, and kinase inhibitory effects of pyrazole-containing diarylureas and diarylamides” (Eur J Med Chem, 2018).

Experiments:
[1] = system: NCI-H322M; test: Growth inhibition of human NCI-H322M cells incubated for 48 hrs by sulforhodamine B assay; format: functional, cell-based
[2] = system: BT-549; test: Growth inhibition of human BT549 cells assessed as cell growth at 0.1 uM incubated for 48 hrs by sulforhodamine B assay relative to control; format: functional; conditions: BT-549, 48 h, read-out: Activity
[3] = system: HL-60(TB); test: Growth inhibition of human HL-60(TB) cells assessed as cell growth at 100 uM incubated for 48 hrs by sulforhodamine B assay relative to control; format: functional; conditions: HL-60, 48 h, read-out: Activity
[4] = system: PC-3; test: Growth inhibition of human PC3 cells assessed as cell growth at 0.01 uM incubated for 48 hrs by sulforhodamine B assay relative to control; format: functional; conditions: PC-3, 48 h, read-out: Activity
[5] = system: SK-OV-3; test: Growth inhibition of human SKOV3 cells assessed as cell growth at 1 uM incubated for 48 hrs by sulforhodamine B assay relative to control; format: functional; conditions: SK-OV-3, 48 h, read-out: Activity
[6] = system: SK-MEL-28; test: Growth inhibition of human SK-MEL-28 cells assessed as cell growth at 0.01 uM incubated for 48 hrs by sulforhodamine B assay relative to control; format: functional; conditions: SK-MEL-28, 48 h, read-out: Activity
[7] = system: Malme-3M; test: Growth inhibition of human MALME-3M cells assessed as cell growth at 0.01 uM incubated for 48 hrs by sulforhodamine B assay relative to control; format: functional; conditions: read-out: Activity
[8] = system: SNB-19; test: Growth inhibition of human SNB19 cells incubated for 48 hrs by sulforhodamine B assay; format: functional, cell-based; conditions: SNB-19, 48 h
[9] = system: LOX IMVI; test: Growth inhibition of human LOXIMVI cells assessed as cell growth at 100 uM incubated for 48 hrs by sulforhodamine B assay relative to control; format: functional; conditions: read-out: Activity
[10] = system: MDA-MB-435; test: Growth inhibition of human MDA-MB-435 cells assessed as cell growth at 0.1 uM incubated for 48 hrs by sulforhodamine B assay relative to control; format: functional; conditions: MDA-MB-435, 48 h, read-out: Activity
[11] = system: UACC-62; test: Growth inhibition of human UACC62 cells assessed as cell growth at 1 uM incubated for 48 hrs by sulforhodamine B assay relative to control; format: functional; conditions: UACC-62, 48 h, read-out: Activity
[12] = system: NCI-H522; test: Growth inhibition of human NCI-H522 cells assessed as cell growth at 0.1 uM incubated for 48 hrs by sulforhodamine B assay relative to control; format: functional; conditions: NCI-H522, 48 h, read-out: Activity
[13] = system: Malme-3M; test: Growth inhibition of human MALME-3M cells assessed as cell growth at 100 uM incubated for 48 hrs by sulforhodamine B assay relative to control; format: functional; conditions: read-out: Activity
[14] = system: MOLT-4; test: Growth inhibition of human MOLT4 cells assessed as cell growth at 100 uM incubated for 48 hrs by sulforhodamine B assay relative to control; format: functional; conditions: MOLT-4, 48 h, read-out: Activity
[15] = system: M14; test: Growth inhibition of human M14 cells incubated for 48 hrs by sulforhodamine B assay; format: functional, cell-based; conditions: M14, 48 h
[16] = system: T47D; test: Growth inhibition of human T47D cells assessed as cell growth at 1 uM incubated for 48 hrs by sulforhodamine B assay relative to control; format: functional; conditions: read-out: Activity
[17] = system: MDA-MB-231; test: Growth inhibition of human MDA-MB-231 cells assessed as cell growth at 1 uM incubated for 48 hrs by sulforhodamine B assay relative to control; format: functional; conditions: MDA-MB-231, 48 h, read-out: Activity
[18] = system: RPMI-8226; test: Growth inhibition of human RPMI8226 cells assessed as cell growth at 100 uM incubated for 48 hrs by sulforhodamine B assay relative to control; format: functional; conditions: RPMI-8226, 48 h, read-out: Activity
[19] = system: NCI-H23; test: Growth inhibition of human NCI-H23 cells incubated for 48 hrs by sulforhodamine B assay; format: functional, cell-based; conditions: NCI-H23, 48 h
[20] = system: SF-539; test: Growth inhibition of human SF539 cells assessed as cell growth at 0.1 uM incubated for 48 hrs by sulforhodamine B assay relative to control; format: functional; conditions: SF-539, 48 h, read-out: Activity
[21] = system: SK-MEL-2; test: Growth inhibition of human SK-MEL-2 cells assessed as cell growth at 0.01 uM incubated for 48 hrs by sulforhodamine B assay relative to control; format: functional; conditions: SK-MEL-2, 48 h, read-out: Activity
[22] = system: RPMI-8226; test: Growth inhibition of human RPMI8226 cells incubated for 48 hrs by sulforhodamine B assay; format: functional, cell-based; conditions: RPMI-8226, 48 h
[23] = system: HL-60(TB); test: Growth inhibition of human HL-60(TB) cells assessed as cell growth at 1 uM incubated for 48 hrs by sulforhodamine B assay relative to control; format: functional; conditions: HL-60, 48 h, read-out: Activity
[24] = system: U-251; test: Growth inhibition of human U251 cells assessed as cell growth at 0.1 uM incubated for 48 hrs by sulforhodamine B assay relative to control; format: functional; conditions: U-251, 48 h, read-out: Activity
[25] = system: KM12; test: Growth inhibition of human KM12 cells assessed as cell growth at 1 uM incubated for 48 hrs by sulforhodamine B assay relative to control; format: functional; conditions: KM12, 48 h, read-out: Activity
[26] = system: Hs-578T; test: Growth inhibition of human Hs578T cells assessed as cell growth at 0.01 uM incubated for 48 hrs by sulforhodamine B assay relative to control; format: functional; conditions: read-out: Activity
[27] = system: K562; test: Growth inhibition of human K562 cells assessed as cell growth at 1 uM incubated for 48 hrs by sulforhodamine B assay relative to control; format: functional; conditions: K562, 48 h, read-out: Activity
[28] = system: NCI/ADR-RES; test: Growth inhibition of human NCI/ADR-RES cells incubated for 48 hrs by sulforhodamine B assay; format: functional, cell-based
[29] = system: SN12C; test: Growth inhibition of human SN12C cells assessed as cell growth at 1 uM incubated for 48 hrs by sulforhodamine B assay relative to control; format: functional; conditions: read-out: Activity
[30] = read-out: LC50 (the source's name)
[31] = read-out: pLC50 (the source's name) (converted)

## O=C(Nc1cccc(-n2cc(-c3ccncc3)c(-c3cc(O)cc(Cl)c3)n2)c1)c1ccc(N2CCOCC2)c(C(F)(F)F)c1
[1]; read-out: GI50
  GI50: 2.53 µM
[1]; [30]
  CC50: > 100 µM
[1]; read-out: TGI
  TGI: > 100 µM
[1]; read-out: pGI50 (converted)
  GI50: 2.82 µM
[1]; [31]
  CC50: > 100 µM
[1]; read-out: pTGI (converted)
  TGI: > 100 µM
[2]
  growth at 0.1 µM: 97%
[3]
  growth at 100 µM: -48%
[4]
  growth at 0.01 µM: 93%
[5]
  growth at 1 µM: 95%
[6]
  growth at 0.01 µM: 99%
[7]
  growth at 0.01 µM: 58%
[8]; read-out: GI50
  GI50: 3.33 µM
[8]; [30]
  CC50: > 100 µM
[8]; read-out: TGI
  TGI: 33.8 µM
[8]; read-out: pGI50 (converted)
  GI50: 3.31 µM
[8]; [31]
  CC50: > 100 µM
[8]; read-out: pTGI (converted)
  TGI: 33.9 µM
[9]
  growth at 100 µM: -45%
[10]
  growth at 0.1 µM: 69%
[11]
  growth at 1 µM: 58%
[12]
  growth at 0.1 µM: 90%
[13]
  growth at 100 µM: -25%
[14]
  growth at 100 µM: -20%
[15]; read-out: GI50
  GI50: 0.774 µM
[15]; [30]
  CC50: 54.5 µM
[15]; read-out: TGI
  TGI: 21.4 µM
[15]; read-out: pGI50 (converted)
  GI50: 0.776 µM
[15]; [31]
  CC50: 8.51 µM
[15]; read-out: pTGI (converted)
  TGI: 2.75 µM
[16]
  growth at 1 µM: 80%
[17]
  growth at 1 µM: 11%
[18]
  growth at 100 µM: -32%
[19]; read-out: GI50
  GI50: 3.56 µM
[19]; read-out: LC50
  LC50: > 100 µM
[19]; read-out: TGI
  TGI: 38.8 µM
[19]; read-out: pGI50 (converted)
  GI50: 3.63 µM
[19]; read-out: pLC50 (converted)
  LC50: > 100 µM
[19]; read-out: pTGI (converted)
  TGI: 38.9 µM
[20]
  growth at 0.1 µM: 93%
[21]
  growth at 0.01 µM: 54%
[22]
  IC50: 0.4 µM
[22]; read-out: GI50
  GI50: 0.396 µM
[22]; [30]
  CC50: > 100 µM
[22]; read-out: TGI
  TGI: 23.1 µM
[22]; read-out: pGI50 (converted)
  GI50: 0.398 µM
[22]; [31]
  CC50: > 100 µM
[22]; read-out: pTGI (converted)
  TGI: 2.29 µM
[23]
  growth at 1 µM: 44%
[24]
  growth at 0.1 µM: 96%
[25]
  growth at 1 µM: 54%
[26]
  growth at 0.01 µM: 96%
[27]
  growth at 1 µM: 30%
[28]; read-out: GI50
  GI50: 45.9 µM
[28]; [30]
  CC50: > 100 µM
[28]; read-out: TGI
  TGI: > 100 µM
[28]; read-out: pGI50 (converted)
  GI50: 4.57 µM
[28]; [31]
  CC50: > 100 µM
[28]; read-out: pTGI (converted)
  TGI: > 100 µM
[29]
  growth at 1 µM: 58%
